Here are results for 8 compounds from patent EP4324928A1, “SYNTHETIC REAGENTS FOR ENZYME-CATALYSED ALKYLATION” (priority 2022, dated 2024).

Where a chain is given by its changes, count along the chain named. Counter-ions that a name gives are not always drawn.

For one data set, the target named is T1, bma (Batis maritima, UniProt Q9ZSZ7).
T1 construct: Leu-Glu-His6 (C); made in house; host or cells: E. coli Δmtn (DE3)
T1 sequence (Q9ZSZ7 1-230): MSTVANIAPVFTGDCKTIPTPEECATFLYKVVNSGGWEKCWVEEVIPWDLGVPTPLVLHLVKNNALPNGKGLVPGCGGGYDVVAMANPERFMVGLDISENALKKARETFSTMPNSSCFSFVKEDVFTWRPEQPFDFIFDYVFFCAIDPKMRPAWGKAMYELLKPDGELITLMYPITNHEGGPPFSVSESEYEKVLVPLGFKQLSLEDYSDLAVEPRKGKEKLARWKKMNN
Kind of data set: TPMT panel screen: SAM production from SAH with methyl donor (HPLC). Format: biochemical. The settings on record: 2 mM DMSa, 1 mM SAH, 10 µM TPMT, 50 mM phosphate buffer pH 8.0, 25°C; barely exceeds uncatalyzed background. An excerpt: (§1) The inventors are not aware of any reports on SAM-dependent methyltransferases that transfer methyl groups from or to sulfates or sulfonates.^[18] […] To test this idea, the inventors assayed a panel of 13 distantly related TPMT homologs for the ability to produce SAM from SAH using DMSa, methyl methanesulfonate (MMSa), methyl toluenesulfonate (MeOTs) or methyl 4-nitrobenzenesulfonate (MeONs) as methyl donor. The proteins were produced in E. coli and purified following standard procedures . The activity of the enzymes was assayed in reactions containing 1 mM SAH, 50 mM phosphate buffer pH 8.0 and 2 mM of either methyl donor. The concentration of SAM after different incubation times (0.5- 24 h) was quantified by HPLC. […] In a nutshell, enzymes that have evolved to catalyze specific physiological reactions may have acquired - by chance - considerable activities for reactions they were never optimized for, while others - from the same enzyme family and with the same physiological function - may have not.

For a further data set, the system named is msm. Described as above. Format: biochemical, Mycolicibacterium smegmatis. The settings on record: 2 mM DMSa, 1 mM SAH, 10 µM TPMT, 50 mM phosphate buffer pH 8.0, 25°C; barely exceeds uncatalyzed background.
Source text: as §1

The test system of another data set is acl. Described as above. Conditions: 2 mM DMSa, 1 mM SAH, 10 µM TPMT, 50 mM phosphate buffer pH 8.0, 25°C; complete conversion within 0.5 h. In kind it is biochemical, Aspergillus clavatus.
Source text: as §1

In the next data set the test system is nba. The description is as above. In kind it is biochemical, Nitrospinae bacterium. The settings on record: 2 mM DMSa, 1 mM SAH, 10 µM TPMT, 50 mM phosphate buffer pH 8.0, 25°C; barely exceeds uncatalyzed background.
Source text: as §1

For another data set, the system named is dba. The data set is described as above. Format: biochemical, Dehalococcoidia bacterium. The settings on record: 2 mM DMSa, 1 mM SAH, 10 µM TPMT, 50 mM phosphate buffer pH 8.0, 25°C; barely exceeds uncatalyzed background.
Source text: as §1

The next data set deals with BxHMT. The data set is described as follows: Time-dependent methylation of SAH by HMT using dimethyl sulfate with or without sodium iodide (HPLC). Format: biochemical, Paraburkholderia xenovorans. Conditions: 1 mM SAH, 2 mM DMSa, 0.1, 1.0 or 10 mM Nal (same efficiency without Nal), 50 mM phosphate buffer pH 8, within two hours.
In a further data set the test system is mac. The data set is described as follows: TPMT panel screen: SAM production from SAH with methyl donor (HPLC). Conditions: 2 mM DMSa, 1 mM SAH, 10 µM TPMT, 50 mM phosphate buffer pH 8.0, 25°C; barely exceeds uncatalyzed background. In kind it is biochemical, Methanosarcina Acetivorans.
Source text: as §1

A short description of data set [1]: Stability test of methyl donors in phosphate buffer (1H NMR, hydrolysis and phosphorolysis). The settings on record: pH 8.4. The procedure: These solutions were monitored by ^1H NMR at time points between 0.5 to 24 hours to quantify the products of hydrolysis and phosphorolysis. The ^1H NMR signal peaks of all methyl species were integrated and the ratio of them was calculated. The percentage of methyl donor was plotted against time and the graph was fitted with exponential decay model to calculate the half-life of the methyl donor.

For a further data set, the system named is bra. Kind of data set: TPMT panel screen: SAM production from SAH with methyl donor (HPLC). Format: biochemical, Brassica rapa chinensis. The settings on record: 2 mM DMSa, 1 mM SAH, 10 µM TPMT, 50 mM phosphate buffer pH 8.0, 25°C; barely exceeds uncatalyzed background.
Source text: as §1

The test system of another data set is dsq. Described as above. In kind it is biochemical, Dichomitus squalens. Conditions: 2 mM DMSa, 1 mM SAH, 10 µM TPMT, 50 mM phosphate buffer pH 8.0, 25°C; complete conversion within 0.5 h.
Source text: as §1

A further data set addresses T2, AtHMT (Arabidopsis thaliana, UniProt Q0WP12).
T2 construct: made in house; host or cells: E. coli Δmtn (DE3)
T2 sequence (Q0WP12 1-227): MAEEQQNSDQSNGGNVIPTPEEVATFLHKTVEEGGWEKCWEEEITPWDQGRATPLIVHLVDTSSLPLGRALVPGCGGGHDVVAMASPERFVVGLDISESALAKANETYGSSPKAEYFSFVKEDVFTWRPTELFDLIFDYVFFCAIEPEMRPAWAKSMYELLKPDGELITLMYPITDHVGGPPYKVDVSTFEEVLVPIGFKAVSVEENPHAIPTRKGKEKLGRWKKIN
Kind of data set: Time-dependent methylation of SAH by HMT using dimethyl sulfate with or without sodium iodide (HPLC). Format: biochemical. Conditions: 1 mM SAH, 2 mM DMSa; efficient SAM production required 10 mM Nal.

A short description of another data set: physchem. In kind it is physicochemical. The settings on record: buffer, pH 8. The protocol: Ethylene sulfate (C2H4SO4) is a two carbon-unit cyclic sulfate. The inventors also used ethylene sulfate to perform SAH alkylation (Figure 7). A new peak with retention time at 15.7 minutes could be detected by HPLC in the reactions with about half number of TPMTs, although the new peak has not been identified as the desired product. If the new peak is the target product, especially for TPMT kal, 37% of SAH was converted to SAM analog after 4-hour incubation. For TPMT CAK and ath_V140A, they also got over 20% yield of SAM analog. In my opinion, the inactivation of TPMT during the reaction was not the reason of relatively low yield of SAM analog. […] During the reaction, most of ethylene sulfate hydrolyzed so that there was not enough ethylene sulfate to alkylate SAH.

The next data set relates to TPMT kal. The data set is described as follows: TPMT-catalyzed SAH alkylation using ethylene sulfate as alkyl group donor (HPLC). Format: biochemical, Kordia algicida. From the text:
(§2) Ethylene sulfate (C2H4SO4) is a two carbon-unit cyclic sulfate. The inventors also used ethylene sulfate to perform SAH alkylation (Figure 7).

The test system of the next data set is TPMT CAK. The data set is described as above. Conditions: new HPLC peak not identified as the desired product. Format: biochemical.
Source text: as §2

The next data set addresses T3, ath_V140A (Arabidopsis thaliana, UniProt Q0WP12, V140A).
T3 construct: made in house; host or cells: E. coli Δmtn (DE3)
T3 sequence (Q0WP12 1-227 V140A): T2 sequence (Q0WP12 1-227) with V140A
Described as above. In kind it is biochemical. The settings on record: new HPLC peak not identified as the desired product.
Source text: as §2

A further data set deals with monoamine oxidase. The settings on record: background statement; cited from earlier work.
For the next data set, the system named is TPMT acl. The data set is described as follows: TPMT-catalyzed SAH methylation using dimethyl sulfite as methyl group donor (HPLC). Conditions: after 20-hour incubation. In kind it is biochemical, Aspergillus clavatus. An excerpt:
(§3) Dimethyl sulfite (Me2SO3) is used as an additive in some polymers to prevent oxidation. It is much less toxic than dimethyl sulfate and can be considered as a potential methyl group donor. Herein, the inventors performed SAH methylation with dimethyl sulfite (Figure 9).

Another data set has as its system TBU. Described as above. Format: biochemical. The settings on record: after 20-hour incubation.
Source text: as §3

The test system of a further data set is TPMT uma. Described as above. Format: biochemical, Ustilago maydis. The settings on record: after 20-hour incubation.
Source text: as §3

For data set [2] the following is noted: rats; cited from earlier work.
The target of another data set is T4, AtHMT Val140 to Thr (Arabidopsis thaliana, UniProt Q0WP12, V140T).
T4 sequence (Q0WP12 1-227 V140T): T2 sequence (Q0WP12 1-227) with V140T
Conditions: previous study; cited from earlier work.

A further data set addresses T5, AtHMTV140A (Arabidopsis thaliana, UniProt Q0WP12, V140A).
T5 construct: made in house; host or cells: E. coli Δmtn (DE3)
T5 sequence (Q0WP12 1-227 V140A): T2 sequence (Q0WP12 1-227) with V140A
The data set is described as follows: Time-dependent methylation of SAH with methyl iodide, initial rates, mutant versus AtHMT (HPLC). In kind it is biochemical. Conditions: 1 µM enzyme, 1 mM SAH, 2 mM Mel, 50 mM sodium phosphate buffer pH 8.0, 25 °C.

Description for BxHMT: The given values are averages of three independent measurements. The associated error is less than 30 % of the average value. […] In addition, the reactions contained 50 mM sodium phosphate buffer (pH 8.0) and were incubated at 25 °C. The concentration of SAM was determined by HPLC. A) with 10 µM BxHMT; B) with 10 µM AtHMT. […] The concentration of SAM was determined by HPLC; B) Initial rates of these reactions were estimated from the slopes of linear-fit curves of the points at 1, 2 and 4 minutes.

Take `COS(=O)(=O)OC` [DMSa, dimethyl sulfate]: the rate on bma is less than 0.01 min⁻¹; in the data set on msm it was less than 0.01 min⁻¹; in the data set with acl, more than 3 turnover min^-1; in the data set on nba, less than 0.01 min⁻¹; in the data set with dba it was less than 0.01 min⁻¹; in the data set on mac, less than 0.01 min⁻¹. For the same compound, the rate is less than 0.01 min⁻¹ in the data set on bra and more than 3 turnover min^-1 in the data set on dsq. In addition, the “SAH converted to SAM” value with BxHMT was 60 - 70%. The half-life in data set [1] (buffer) is 0.97 ± 0.05 h; in [1], 0.95 ± 0.07 h. For the same compound, the “acceptance of DMSa as substrate” value at AtHMT is “not a direct substrate”.

As for `O=S1(=O)OCCO1` [ethylene sulfate, Ethylene sulfate], in the data set “physchem”, the half-life was found to be 0.183 h. The “yield of SAM analog” value with TPMT kal (1 mM SAH, 1 mM ethylene sulfate added every half an hour, after 3-hour incubation) is 60%; in the data set on TPMT CAK, “over 20%”; at ath_V140A it was “over 20%”. The “SAH converted to SAM analog” value in the data set on TPMT kal (ethylene sulfate as donor, after 4-hour incubation, new HPLC peak not identified as the desired product) amounted to 37%.

On to `COS(=O)(=O)c1ccc([N+](=O)[O-])cc1` [MeONs, methyl 4-nitrobenzenesulfonate], for which the half-life in [1] (buffer) is 3 ± 0.1 h.

On to `C[C@H](NCc1ccc(OCc2cccc(F)c2)cc1)C(N)=O` [safinamide], for which, in the data set with monoamine oxidase, the “increased potency by addition of a single methyl group” value is recorded as 20 fold and the “increased selectivity by addition of a single methyl group” value is given as approximately 1000 fold.

Regarding `COS(=O)OC` [dimethyl sulfite, Dimethyl sulfite], the “yield of SAM” value with TPMT acl was determined as 14%; in the data set with TBU it was 7%; in the data set on TPMT uma, 8%.

Turning to `CI` [Mel, methyl iodide], in data set [2], the LD50 is reported as 76 mg/kg. Further, the “catalytic efficiency for Mel reduced (Val140 to Thr)” value at AtHMT Val140 to Thr is listed as 6 fold. Also, the “activity for Mel diminished (Val140 to Ala versus AtHMT)” value on AtHMTV140A worked out at 7 fold.

For `COS(=O)(=O)c1ccc(C)cc1` [MeOTs, methyl 4-toluenesulfonate], the figures for the half-life in data set [1] (buffer) and in [1] were 26 ± 1 h and 21 ± 3 h, respectively.

For `COS(C)(=O)=O` [MMSa, methyl methanesulfonate], the half-life in data set [1] (buffer) was 34 ± 1 h; in data set [1], 28 ± 4 h.

Broadly, the half-life is how long it takes for the measured level to halve. Lower therefore signals rapid decline. Usually LD50 stands for the dose expected to kill half of the subjects tested.
